For 17 compounds, MIC, MIC90 and Activity results are on record in ChEMBL document CHEMBL5260858, “Targeting mycobacterial membranes and membrane proteins: Progress and limitations” (Bioorg Med Chem, 2023).

As a reminder, the MIC90 is an inhibitory concentration at the 90% level, which refers to growth in some studies and to a panel of isolates in others.

Test [1] concerns Mycobacterium tuberculosis. In words: Antitubercular activity against extensively drug resistant Mycobacterium tuberculosis assessed as bacterial growth inhibition incubated for 6 days by resazurin based fluorescence assay. The class given is functional. The note with it: 144 h, time 6 day. (Resazurin is reduced to fluorescent resorufin, in cell work by metabolically active cells.)

In test [2] the test system is Mycobacterium tuberculosis. The test can be described thus: Antitubercular activity against multidrug resistant Mycobacterium tuberculosis assessed as bacterial growth inhibition incubated for 6 days by resazurin based fluorescence assay. The class given is functional. The note with it: 144 h, time 6 day.
Test [3] relates to Mycobacterium tuberculosis. In words: microbe, parasite or virus in culture. The note with it: 144 h.
In test [4] the test system is Mycobacterium tuberculosis. The test can be described thus: microbe, parasite or virus in culture. The note with it: 144 h. This is another data set of the same source.
Test [5] has as its system Mycobacterium tuberculosis. In words: Antitubercular activity against multidrug-resistant clinical isolate Mycobacterium tuberculosis CDCT-27 assessed as bacterial growth inhibition. The class given is functional.
For test [6], the system named is Mycobacterium tuberculosis. In words: Antitubercular activity against multidrug-resistant clinical isolate Mycobacterium tuberculosis CDCT-3 assessed as bacterial growth inhibition. The class given is functional.
Test [7] concerns Mycobacterium tuberculosis. In words: Antitubercular activity against multidrug-resistant clinical isolate Mycobacterium tuberculosis CDCT-2 assessed as bacterial growth inhibition. The class given is functional.
The test system of test [8] is Mycobacterium tuberculosis. In words: Antimycobacterial activity against BTZ-resistant Mycobacterium tuberculosis NTB1 assessed as bacterial growth inhibition incubated for 6 days by resazurin dye based assay. The note with it: NTB1, 144 h, time 6 day. The class given is functional.
For test [9], the system named is Mycobacterium tuberculosis. The test can be described thus: Antitubercular activity against multidrug resistant Mycobacterium tuberculosis clinical isolate assessed as bacterial growth inhibition. The class given is functional.
In test [10] the test system is Mycobacterium tuberculosis. In words: Antimycobacterial activity against multidrug resistant Mycobacterium tuberculosis 16995 assessed as bacterial growth inhibition incubated for 7 days by microplate Alamar blue assay. The note with it: Mycobacterium tuberculosis, 16995, 168 h; time 7 day. The class given is functional.
Test [11] has as its system Mycobacterium tuberculosis. In words: Antimycobacterial activity against multidrug resistant Mycobacterium tuberculosis 16833 assessed as bacterial growth inhibition incubated for 7 days by microplate Alamar blue assay. The class given is functional. The note with it: Mycobacterium tuberculosis, 16833, 168 h; time 7 day.
Test [12] relates to Mycobacterium tuberculosis. The test can be described thus: Antitubercular activity against Mycobacterium tuberculosis H37Rv overexpressing DprE1 assessed as bacterial growth inhibition. The class given is functional.
Test [13] deals with Mycobacterium tuberculosis. In words: Antitubercular activity against multidrug resistant Mycobacterium tuberculosis SK-7782 assessed as bacterial growth inhibition by resazurin microtiter assay. The class given is functional.
In test [14] the test system is Mycobacterium tuberculosis. The test can be described thus: Antitubercular activity against rifampicin resistant Mycobacterium tuberculosis ATCC 35838 infected in RAW264.7 cells assessed as inhibition of intracellular bacterial growth incubated for 6 days by microplate alamar blue assay. The class given is functional. Details: scale not given: the % may be the effect or the level left. The note with it: time 6 day.

For test [15], the system named is Mycobacterium tuberculosis. The test can be described thus: Antitubercular activity against isoniazid resistant Mycobacterium tuberculosis ATCC 35822 infected in RAW264.7 cells assessed as inhibition of intracellular bacterial growth incubated for 6 days by microplate alamar blue assay. The class given is functional. More on the design: scale not given: the % may be the effect or the level left. The note with it: time 6 day.

The test system of test [16] is Mycobacterium tuberculosis. The test can be described thus: Antitubercular activity against ethambutol resistant Mycobacterium tuberculosis ATCC 35837 inhibition infected in RAW264.7 cells assessed as inhibition of intracellular bacterial growth incubated for 6 days by microplate alamar blue assay. The class given is functional. More on the design: scale not given: the % may be the effect or the level left. The note with it: time 6 day.

Test [17] deals with Mycobacterium tuberculosis. The test can be described thus: Antimycobacterial activity against clinically isolated multidrug resistant Mycobacterium tuberculosis assessed as bacterial growth inhibition incubated for 14 days by CLSI protocol based assay. The class given is functional. The note with it: 336 h, time 14 day.

≈ marks a conversion by molar mass, not a printed value.

Consider `CCc1ccc([C@H]2C[C@@H](C(F)(F)F)n3ncc(C(=O)NCc4ccc(OC)cc4)c3N2)cc1`, for which the MIC in test [1] stood at 0.3 µM (≈ 0.138 µg/mL); in test [2], 0.16 µM (≈ 0.0734 µg/mL).

For `CNC(=O)c1c(-c2ccc(O)cc2)oc2ccc(O)c(CN3CCCCC3)c12`, the MIC is 0.125 µM (≈ 0.0476 µg/mL) in test [3] and 0.06 µM (≈ 0.0228 µg/mL) in test [4]. Turning to `CCCc1ccc(NC(=O)COc2cc(C)nc3ccc(OC)cc23)cc1`, the MIC in test [5] is 4 ng/mL (≈ 0.011 µM); in test [6] it was 8 ng/mL (≈ 0.022 µM); in [7], less than 2 ng/mL. `CCS(=O)(=O)N1CCN(c2nc(=O)c3cc(C(F)(F)F)cc([N+](=O)[O-])c3s2)CC1`: the MIC in test [8] stood at 25100 ng/mL (≈ 55.5 µM). For the compound `COc1nc2ccc(Br)cc2cc1[C@@H](c1ccccc1)[C@@](O)(CCN(C)C)c1cccc2ccccc12` [BEDAQUILINE], the MIC in test [9] came out at 10 ng/mL (≈ 0.018 µM). Consider `O=c1nc(N2CC3CN(Cc4ccc(Cl)c(F)c4)CC3C2)sc2c([N+](=O)[O-])cc(C(F)(F)F)cc12` (stereo not given), for which the MIC was determined as 0.073 µM (≈ 0.0386 µg/mL) in test [10] and 0.102 µM (≈ 0.0539 µg/mL) in test [11]. As to `O=c1nc(N2CCN(S(=O)(=O)C3CC3)CC2)sc2c([N+](=O)[O-])cc(C(F)(F)F)cc12`, the MIC in test [8] was 14700 ng/mL (≈ 31.7 µM). On the same count and under the same terms, in the case of `O=c1nc(N2CCN(S(=O)(=O)c3cccs3)CC2)sc2c([N+](=O)[O-])cc(C(F)(F)F)cc12` it was greater than 100000 ng/mL. As for `C[C@@H](NC(=O)c1cc([N+](=O)[O-])cc(C(F)(F)F)c1)c1ccccc1`, the MIC in test [12] was determined as 310 ng/mL (≈ 0.916 µM). For `c1cc2c(s1)CCOC21CCN(Cc2ccc3c(c2)OCCO3)CC1`, the MIC in test [1] and in test [2] was 0.3 µM (≈ 0.107 µg/mL) throughout.

As to `CC1(C)CC(=O)C(=CNc2ccccc2O)C(=O)C1`, in test [13], the MIC90 is 8000 ng/mL (≈ 30.9 µM). Take `CCCCCc1ccc(NC(=O)COc2cc(C)nc3ccc(OC)cc23)cc1`: the MIC in test [5], in test [6] and in test [7] was less than 2 ng/mL in each case. Turning to `CC(C)=CCC/C(C)=C/CNCCNC1C2CC3CC(C2)CC1C3` (stereo not given) [SQ109], the Activity in test [14], in test [15] and in test [16] was 99% in each case.

For `C[C@@]1(COc2ccc(N3CCC(Oc4ccc(OC(F)(F)F)cc4)CC3)cc2)Cn2cc([N+](=O)[O-])nc2O1`, the MIC in test [17] worked out at 6 ng/mL (≈ 0.0112 µM). For `O=c1nc(N2CC3CN(Cc4ccc(OC(F)(F)F)cc4)CC3C2)sc2c([N+](=O)[O-])cc(C(F)(F)F)cc12` (stereo not given), the MIC was 0.053 µM (≈ 0.0297 µg/mL) in test [10] and 0.085 µM (≈ 0.0476 µg/mL) in test [11]. As to `COc1ccc(/C=C2/S/C(=N/N=C/c3ccccc3O)NC2=O)cc1`, the MIC90 in test [13] came to 1000 ng/mL (≈ 2.83 µM).

With `CCc1ccc(NC(=O)COc2cc(C)nc3ccc(OC)cc23)cc1`, the MIC in test [5] is 8 ng/mL (≈ 0.0228 µM); in test [6], 8 ng/mL (≈ 0.0228 µM); in test [7] it was less than 2 ng/mL.
